Here are results for 24 compounds from ChEMBL document CHEMBL1149245 (J Med Chem, 2004).

Calls of active or inactive are those of the source. No cut-off for these calls is given here. A value given as a limit tells only on which side of the number the result lay.

Test [1] concerns the target T1, Alpha-2C adrenergic receptor (Homo sapiens, UniProt P18825).
T1 sequence (P18825 whole entry): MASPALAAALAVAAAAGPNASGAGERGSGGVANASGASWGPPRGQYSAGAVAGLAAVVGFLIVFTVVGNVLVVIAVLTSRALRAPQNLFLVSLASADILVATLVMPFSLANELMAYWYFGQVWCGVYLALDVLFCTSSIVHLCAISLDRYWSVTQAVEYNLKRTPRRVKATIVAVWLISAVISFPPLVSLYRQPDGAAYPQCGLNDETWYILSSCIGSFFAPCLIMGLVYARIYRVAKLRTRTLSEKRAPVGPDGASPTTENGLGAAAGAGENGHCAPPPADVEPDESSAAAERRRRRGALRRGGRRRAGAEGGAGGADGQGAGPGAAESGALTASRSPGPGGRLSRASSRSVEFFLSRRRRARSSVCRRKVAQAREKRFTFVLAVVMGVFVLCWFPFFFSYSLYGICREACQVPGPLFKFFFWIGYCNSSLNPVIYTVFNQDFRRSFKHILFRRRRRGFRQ
As to the kind of experiment: Displacement of [3H]RX821002 from human adrenergic Alpha-2C receptor expressed in CHO cells. The test is classed as cell-based.

The target of test [2] is T2, Alpha-2B adrenergic receptor (Homo sapiens, UniProt P18089).
T2 sequence (P18089 whole entry): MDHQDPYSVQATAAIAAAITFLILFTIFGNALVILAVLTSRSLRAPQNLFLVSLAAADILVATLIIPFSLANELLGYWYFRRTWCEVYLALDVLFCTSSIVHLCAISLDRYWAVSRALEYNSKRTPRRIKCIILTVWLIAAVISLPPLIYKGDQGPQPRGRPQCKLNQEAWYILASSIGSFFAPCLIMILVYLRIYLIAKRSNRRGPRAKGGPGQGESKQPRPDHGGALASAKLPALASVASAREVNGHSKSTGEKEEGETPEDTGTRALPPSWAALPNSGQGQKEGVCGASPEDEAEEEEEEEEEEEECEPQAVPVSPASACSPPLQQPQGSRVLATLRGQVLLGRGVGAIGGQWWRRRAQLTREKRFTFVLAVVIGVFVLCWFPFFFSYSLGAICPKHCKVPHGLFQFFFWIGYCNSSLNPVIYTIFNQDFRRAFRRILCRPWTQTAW
The test is described as follows: Displacement of [3H]RX821002 from human adrenergic alpha-2B receptor expressed in CHO cells. The test is classed as cell-based. Background: In a radioligand displacement assay an active substance lowers the binding of a labelled ligand.

Test [3] addresses T3, Alpha-2A adrenergic receptor (Homo sapiens, UniProt P08913).
T3 sequence (P08913 whole entry): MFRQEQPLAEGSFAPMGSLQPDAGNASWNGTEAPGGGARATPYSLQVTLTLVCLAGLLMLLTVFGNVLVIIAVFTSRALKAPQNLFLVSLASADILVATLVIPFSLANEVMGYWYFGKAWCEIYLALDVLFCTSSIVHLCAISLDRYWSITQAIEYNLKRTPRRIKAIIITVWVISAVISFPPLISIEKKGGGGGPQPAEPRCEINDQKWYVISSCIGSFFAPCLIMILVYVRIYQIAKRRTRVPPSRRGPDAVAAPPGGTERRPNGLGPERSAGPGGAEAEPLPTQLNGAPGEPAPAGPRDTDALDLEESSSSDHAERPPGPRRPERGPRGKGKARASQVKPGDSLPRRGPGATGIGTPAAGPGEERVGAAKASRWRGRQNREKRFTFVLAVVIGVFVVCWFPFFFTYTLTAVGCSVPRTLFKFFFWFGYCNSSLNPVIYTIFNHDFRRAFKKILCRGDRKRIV
As to the kind of experiment: Displacement of [3H]RX821002 from human adrenergic alpha2A receptor expressed in CHO cells. The class given is cell-based.

Test [4] addresses T1, Alpha-2C adrenergic receptor. The test is classed as functional, cell-based, CHO.
Description: Agonist activity at human adrenergic alpha-2C receptor expressed in CHO cells assessed as extracellular acidification by cytosensor microphysiometry
The target in test [5] is T3, Alpha-2A adrenergic receptor. The class given is functional, cell-based, CHO.
Description: Agonist activity at human adrenergic alpha-2A receptor expressed in CHO cells assessed as extracellular acidification by cytosensor microphysiometry
Test [6] addresses T4, Alpha-2A adrenergic receptor (Homo sapiens) (UniProt P08913).
T4 sequence (whole entry): T3 sequence (P08913 whole entry)
The test is described as follows: (§1) Agonist activity at human adrenergic alpha-2A receptor expressed in CHO cells assessed as inhibition of forskolin-induced cAMP accumulation. The test is classed as functional, cell-based.

Test [7] has as its target T5, Alpha-2C adrenergic receptor (Homo sapiens) (UniProt P18825).
T5 sequence (whole entry): T1 sequence (P18825 whole entry)
As to the kind of experiment: (§2) Agonist activity at human adrenergic Alpha-2C receptor expressed in CHO cells assessed as inhibition of forskolin-induced cAMP accumulation. The test is classed as functional, cell-based.

Test [8] concerns the target T1, Alpha-2C adrenergic receptor. Described as §2. The class given is functional, cell-based.
Test [9] deals with T2, Alpha-2B adrenergic receptor. The test is described as follows: Agonist activity at human adrenergic alpha-2B receptor expressed in CHO cells assessed as extracellular acidification by cytosensor microphysiometry. The class given is functional, cell-based.
A further test deals with Nischarin (Homo sapiens, UniProt Q9Y2I1). The test is described as follows: Binding affinity to imidazoline receptor 1.
Sequence of Nischarin (Q9Y2I1 whole entry): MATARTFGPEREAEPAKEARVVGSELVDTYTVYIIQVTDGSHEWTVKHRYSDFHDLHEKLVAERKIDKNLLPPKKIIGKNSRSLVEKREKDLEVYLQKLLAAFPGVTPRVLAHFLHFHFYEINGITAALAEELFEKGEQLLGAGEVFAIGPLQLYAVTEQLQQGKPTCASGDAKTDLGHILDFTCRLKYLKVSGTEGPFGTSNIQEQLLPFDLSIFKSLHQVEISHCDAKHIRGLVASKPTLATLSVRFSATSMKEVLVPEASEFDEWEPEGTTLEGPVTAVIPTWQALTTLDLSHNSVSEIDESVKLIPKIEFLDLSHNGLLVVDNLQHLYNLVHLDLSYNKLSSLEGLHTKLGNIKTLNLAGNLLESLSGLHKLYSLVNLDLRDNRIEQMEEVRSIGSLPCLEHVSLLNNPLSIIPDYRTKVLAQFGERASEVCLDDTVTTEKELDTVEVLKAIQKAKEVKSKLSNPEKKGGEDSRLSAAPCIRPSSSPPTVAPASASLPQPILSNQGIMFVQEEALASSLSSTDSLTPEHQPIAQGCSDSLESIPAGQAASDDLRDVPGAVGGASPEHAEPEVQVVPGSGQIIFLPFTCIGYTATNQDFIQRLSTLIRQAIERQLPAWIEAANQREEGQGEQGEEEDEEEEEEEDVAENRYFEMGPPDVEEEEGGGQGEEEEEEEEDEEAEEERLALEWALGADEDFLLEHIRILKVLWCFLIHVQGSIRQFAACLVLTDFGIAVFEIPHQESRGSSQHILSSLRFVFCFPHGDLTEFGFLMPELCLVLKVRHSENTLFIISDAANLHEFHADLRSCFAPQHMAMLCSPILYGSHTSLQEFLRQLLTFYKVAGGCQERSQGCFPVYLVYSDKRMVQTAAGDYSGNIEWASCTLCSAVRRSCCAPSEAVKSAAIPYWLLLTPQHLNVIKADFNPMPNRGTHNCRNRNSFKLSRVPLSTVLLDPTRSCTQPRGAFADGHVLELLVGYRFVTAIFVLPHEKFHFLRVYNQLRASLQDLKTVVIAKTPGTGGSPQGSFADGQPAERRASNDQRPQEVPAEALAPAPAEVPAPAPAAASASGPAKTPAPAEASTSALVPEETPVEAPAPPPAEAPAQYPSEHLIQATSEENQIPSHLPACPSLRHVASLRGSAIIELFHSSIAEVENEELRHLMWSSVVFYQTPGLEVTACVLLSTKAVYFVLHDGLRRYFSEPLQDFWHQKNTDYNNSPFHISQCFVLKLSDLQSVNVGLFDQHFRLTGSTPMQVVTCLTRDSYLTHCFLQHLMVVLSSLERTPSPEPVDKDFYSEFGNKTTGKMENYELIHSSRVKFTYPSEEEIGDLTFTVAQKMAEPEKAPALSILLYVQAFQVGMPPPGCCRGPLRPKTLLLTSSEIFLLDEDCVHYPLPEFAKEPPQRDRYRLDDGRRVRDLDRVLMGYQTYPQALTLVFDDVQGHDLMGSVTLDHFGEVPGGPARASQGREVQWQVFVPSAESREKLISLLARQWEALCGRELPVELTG
Test [10] concerns the target T3, Alpha-2A adrenergic receptor. Described as §1. The class given is functional, cell-based.

A word on the Ki: it is the dissociation constant of the complex between target and ligand, obtained from inhibition or displacement. A high value points to a looser hold on the target. On to `CC(Oc1ccccc1-c1ccc(O)cc1)C1=NCCN1` (stereo unspecified), for which the Ki is 331 nM in [1], 813 nM in test [2] and 33.9 nM in test [3].
As a reminder, the EC50 is the concentration at which the effect is half-maximal. In the case of `Cc1cccc(-c2ccccc2OC(C)C2=NCCN2)c1` (stereo unspecified), the Ki in test [1] was 245 nM; in test [2], 537 nM; in test [3] it was 51.3 nM. Besides, in test [4], the EC50 is 1580 nM.
Turning to `c1ccc(-c2ccccc2C2OC2C2=NCCN2)cc1` (cis isomer), the Ki in test [1] was 6460 nM; in test [2] it was 20000 nM; in test [3], 1230 nM. In addition, the concentration for a half-maximal effect (EC50) was 2690 nM in test [4] and 3470 nM in test [5].
Consider `CC(Oc1ccccc1-c1ccccc1)C1=NCCC1` (stereo unspecified), for which the Ki in [1] is 5890 nM; in [2], 10000 nM; in test [3], 8130 nM.
Consider `CC(Oc1ccccc1-c1ccncc1)C1=NCCN1` (stereo unspecified), for which the Ki in test [1] was 1450 nM; in [2], 2690 nM; in test [3], 282 nM.
As to `CC(Oc1ccccc1-c1cccc(F)c1)C1=NCCN1` (stereo unspecified), the Ki in test [1] was 17 nM; in [2], 269 nM; in [3], 14.8 nM. Also, the EC50 in test [4] was 60.3 nM; in test [5], 105 nM.
`CC(Oc1ccccc1-c1ccccn1)C1=NCCN1` (stereo unspecified): the Ki in test [1] was 1260 nM; in test [2], 3310 nM; in test [3] it was 1200 nM.
For the compound `CC(Oc1ccccc1-c1cccc([N+](=O)[O-])c1)C1=NCCN1` (stereo unspecified), the Ki is 234 nM in test [1], 661 nM in [2] and 60.3 nM in [3]. Besides, the values for the EC50 in test [4] and in test [8] were 100 nM and 158 nM, respectively. The outcome in test [6] was inactive. Also, the Intrinsic activity in test [7] turned out to be 0.6.
Consider `Cc1ccc(-c2ccccc2OC(C)C2=NCCN2)cc1` (stereo unspecified), for which the Ki in test [1] was 251 nM; in test [2], 398 nM; in test [3], 41.7 nM. The same compound showed an EC50 in [4] of 832 nM.
`CC(Oc1ccccc1-c1ccccc1[N+](=O)[O-])C1=NCCN1` (stereo unspecified): the Ki in [1] was 1230 nM; in test [2], 1550 nM; in test [3] it was 174 nM.
On the same counts, the results for `CC(Oc1ccccc1-c1ccc([N+](=O)[O-])cc1)C1=NCCN1` (stereo unspecified) are 302 nM, 501 nM and 123 nM.
`CC(Oc1ccccc1-c1ccccc1)C1=NCCN1` (stereo unspecified) [BIPHENYLINE]: the Ki in [1] was 200 nM; in test [2], 501 nM; in test [3] it was 47.9 nM; at Nischarin, 126 nM. Also, the EC50 was 57.5 nM in test [4], 646 nM in [9] and 115 nM in test [5].
For `CC(Oc1ccccc1-c1cccnc1)C1=NCCN1` (stereo unspecified), the figures for the Ki in test [1], in test [2] and in test [3] were 64.6 nM, 933 nM and 138 nM, respectively. The EC50 in test [4] is 50.1 nM; in [9] it was 1000 nM; in test [5] it was 316 nM; in test [10], 589 nM; in test [8] it was 39.8 nM. Further, the values for the Intrinsic activity in test [6] and in [7] were 0.5 and 1, respectively.
On to `c1ccc(-c2ccccc2C2OC2C2=NCCN2)cc1` (stereo unspecified), for which the Ki in test [1] is 4270 nM; in test [2], 1230 nM; in test [3] it was 1510 nM.
On the same counts, the results for `CC(Oc1ccccc1-c1ccccc1O)C1=NCCN1` (stereo unspecified) are 1620 nM, 1000 nM and 309 nM.
As for `CC(Oc1ccccc1-c1cccs1)C1=NCCN1` (stereo unspecified), the results for the Ki in test [1], in test [2] and in [3] were 72.4 nM, 214 nM and 17 nM, respectively. In addition, the EC50 in [4] is 58.9 nM; in [9], 1000 nM; in test [5], 41.7 nM.
Take `CC(Sc1ccccc1-c1ccccc1)C1=NCCN1` (stereo unspecified): the Ki is 708 nM in [1], 3550 nM in [2] and 339 nM in [3].
Turning to `CC(Oc1ccccc1-c1ccccc1)C1=NCCO1` (stereo unspecified), the Ki in test [1] was 5890 nM; in [2], 10000 nM; in test [3] it was 8130 nM.
Take `CC(Oc1ccccc1-c1ccsc1)C1=NCCN1` (stereo unspecified): the results for the Ki in test [1], in test [2] and in [3] were 132 nM, 417 nM and 45.7 nM, respectively. Besides, the concentration for a half-maximal effect (EC50) was 93.3 nM in test [4] and 75.9 nM in [5].
As to `CC(Oc1ccccc1-c1cccc(O)c1)C1=NCCN1` (stereo unspecified), the Ki in test [1] was 17.8 nM; in test [2], 355 nM; in [3], 27.5 nM. For the same compound, the EC50 is 46.8 nM in test [4] and 5250 nM in test [9].
With `CC(Oc1ccccc1-c1ccccc1)C1=NCCS1` (stereo unspecified), the Ki in test [1], in test [2] and in test [3] was over 10000 nM in each case.
Take `Cc1ccccc1-c1ccccc1OC(C)C1=NCCN1` (stereo unspecified): the figures for the Ki in test [1], in [2] and in test [3] were 234 nM, 832 nM and 46.8 nM, respectively. The compound also gave a concentration giving a half-maximal response (EC50) in [4] of 363 nM.
In the case of `CC(Nc1ccccc1-c1ccccc1)C1=NCCN1` (stereo unspecified), the Ki in [1] was 708 nM; in [2] it was 1150 nM; in test [3] it was 91.2 nM. The concentration giving a half-maximal response (EC50) in test [4] is 93.3 nM; in [9], 3800 nM; in [5], 389 nM.
Turning to `CC(Oc1ccccc1-c1cccc(N)c1)C1=NCCN1` (stereo unspecified), the Ki in test [1] is 309 nM; in test [2] it was 479 nM; in [3], 37.2 nM. Further, the values for the EC50 in test [4] and in [5] were 501 nM and 257 nM, respectively.
